Measurements published in PubChem BioAssay AID330 (DTP/NCI, 2004).
Values joined by “and” are separate entries in the source; they are usually repeats but may differ in a detail not shown here. Equal entries are not always repeated. Toxic doses and inconclusive results are not listed.

System: P388 leukemia ip, CD2F1 mice, survival T/C
Experiment: NCI In Vivo Anticancer Drug Screen. Data for tumor model P388 Leukemia (intraperitoneal) in CD2F1 (CDF1) mice
Conditions: endpoint: median survival time, higher = longer survival
Method in brief: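 Mice carrying the transplanted tumor received test compound or vehicle. Survival was recorded in each group, and the value is the treated-group measurement divided by that of the vehicle-treated control group.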

[1] = dose: 50.0 mg/kg/injection, schedule: Q01DX005 (ip), vehicle: Klucel (hydroxypropylcellulose) (HPC)
[2] = dose: 100.0 mg/kg/injection, schedule: Q01DX005 (ip), vehicle: Klucel (hydroxypropylcellulose) (HPC)
[3] = dose: 200.0 mg/kg/injection, schedule: Q01DX005 (ip), vehicle: Klucel (hydroxypropylcellulose) (HPC)
[4] = dose: 6.25 mg/kg/injection, schedule: Q01DX005 (ip), vehicle: Klucel (hydroxypropylcellulose) (HPC)
[5] = dose: 12.5 mg/kg/injection, schedule: Q01DX005 (ip), vehicle: Klucel (hydroxypropylcellulose) (HPC)
[6] = dose: 25.0 mg/kg/injection, schedule: Q01DX005 (ip), vehicle: Klucel (hydroxypropylcellulose) (HPC)
[7] = dose: 50.0 mg/kg/injection, schedule: Q01DX005 (ip), vehicle: saline with Tween-80
[8] = dose: 100.0 mg/kg/injection, schedule: Q01DX005 (ip), vehicle: saline with Tween-80
[9] = dose: 200.0 mg/kg/injection, schedule: Q01DX005 (ip), vehicle: saline with Tween-80
[10] = dose: 12.5 mg/kg/injection, schedule: Q01DX009 (ip), vehicle: Klucel (hydroxypropylcellulose) (HPC)
[11] = dose: 25.0 mg/kg/injection, schedule: Q01DX009 (ip), vehicle: Klucel (hydroxypropylcellulose) (HPC)
[12] = dose: 50.0 mg/kg/injection, schedule: Q01DX009 (ip), vehicle: Klucel (hydroxypropylcellulose) (HPC)
[13] = dose: 60.0 mg/kg/injection, schedule: Q01DX005 (ip), vehicle: saline with Tween-80
[14] = dose: 120.0 mg/kg/injection, schedule: Q01DX005 (ip), vehicle: saline with Tween-80
[15] = dose: 240.0 mg/kg/injection, schedule: Q01DX005 (ip), vehicle: saline with Tween-80

FC(F)(F)C1(C(F)(F)F)O[P+]2(OC(C(F)(F)F)(C(F)(F)F)c3ccccc32)c2ccccc21
T/C [1]: 97 % of control | T/C [2]: 105 % of control | T/C [3]: 106 % of control

CC1(C)S(=O)(=O)OCCOS1(=O)=O
T/C (dose: 3.75 mg/kg/injection, schedule: Q01DX005 (ip), vehicle: Klucel (hydroxypropylcellulose) (HPC)): 107 % of control | T/C (dose: 7.5 mg/kg/injection, schedule: Q01DX005 (ip), vehicle: Klucel (hydroxypropylcellulose) (HPC)): 107 % of control and 111 % of control and 115 % of control | T/C (dose: 15.0 mg/kg/injection, schedule: Q01DX005 (ip), vehicle: Klucel (hydroxypropylcellulose) (HPC)): 119 % of control

O=C1OCCC(O)=C1C=Nc1ccccc1
T/C [4]: 108 % of control | T/C [5]: 112 % of control | T/C [6]: 117 % of control | T/C (dose: 100.0 mg/kg/injection, schedule: Q01DX001 (ip), vehicle: Klucel (hydroxypropylcellulose) (HPC)): 100 % of control | T/C (dose: 200.0 mg/kg/injection, schedule: Q01DX001 (ip), vehicle: Klucel (hydroxypropylcellulose) (HPC)): 97 % of control | T/C (dose: 400.0 mg/kg/injection, schedule: Q01DX001 (ip), vehicle: Klucel (hydroxypropylcellulose) (HPC)): 99 % of control

CNC(=O)OCc1c(COC(=O)NC)c(-c2ccc(N)cc2)n(C)c1C
T/C (dose: 6.25 mg/kg/injection, schedule: Q01DX009 (ip), vehicle: distilled water + Tween-80): 106 % of control and 92 % of control | T/C (dose: 12.5 mg/kg/injection, schedule: Q01DX009 (ip), vehicle: distilled water + Tween-80): 119 % of control and 98 % of control | T/C (dose: 25.0 mg/kg/injection, schedule: Q01DX009 (ip), vehicle: distilled water + Tween-80): 100 % of control and 123 % of control | T/C (dose: 50.0 mg/kg/injection, schedule: Q01DX009 (ip), vehicle: distilled water + Tween-80): 119 % of control

O=C(CC(O)c1cccnc1)CC(O)c1cccnc1 (stereo not drawn)
T/C (dose: 60.0 mg/kg/injection, schedule: Q01DX005 (ip), vehicle: saline): 100 % of control | T/C (dose: 120.0 mg/kg/injection, schedule: Q01DX005 (ip), vehicle: saline): 114 % of control | T/C (dose: 240.0 mg/kg/injection, schedule: Q01DX005 (ip), vehicle: saline): 114 % of control

CC(NC(=O)C(NC(=O)OCc1ccccc1)C(C)O)C(=O)OCc1ccccc1 (stereo not drawn)
T/C [7]: 101 % of control | T/C [8]: 92 % of control | T/C [9]: 100 % of control

O=c1[nH]c(=S)[nH]cc1Oc1ccc(I)cc1
T/C [10]: 106 % of control | T/C [11]: 107 % of control | T/C [12]: 104 % of control

O=S1(=O)CC2(N3CCOCC3)C3CCC(C3)C21 (stereo not drawn)
T/C (dose: 50.0 mg/kg/injection, schedule: Q04DX003 (ip), vehicle: saline with Tween-80): 99 % of control and 101 % of control | T/C (dose: 100.0 mg/kg/injection, schedule: Q04DX003 (ip), vehicle: saline with Tween-80): 100 % of control and 104 % of control | T/C (dose: 200.0 mg/kg/injection, schedule: Q04DX003 (ip), vehicle: saline with Tween-80): 101 % of control and 104 % of control

Cc1cc(N/N=C/c2cccc3ccccc23)c2cc3c(cc2n1)OCO3
T/C [4]: 95 % of control | T/C [5]: 100 % of control | T/C [6]: 112 % of control

N#C/C(=C1/OC(=N)C(c2ccccc2Cl)C1=O)c1ccccc1Cl (stereo not drawn)
T/C [7]: 103 % of control | T/C [8]: 107 % of control | T/C [9]: 103 % of control

O=NN(CCCl)C(=O)Nc1ccc(Br)cc1
T/C (dose: 6.25 mg/kg/injection, schedule: Q01DX009 (ip), vehicle: saline): 122 % of control | T/C (dose: 12.5 mg/kg/injection, schedule: Q01DX009 (ip), vehicle: suspension in saline): 150 % of control | T/C (dose: 25.0 mg/kg/injection, schedule: Q01DX009 (ip), vehicle: suspension in saline): 167 % of control | T/C (dose: 50.0 mg/kg/injection, schedule: Q01DX009 (ip), vehicle: saline): 122 % of control | T/C (dose: 50.0 mg/kg/injection, schedule: Q01DX009 (ip), vehicle: suspension in saline): 167 % of control

CC1CCC2(NC1)OC1CC3C4CCC5CC(N)CCC5(C)C4CCC3(C)C1C2C (stereo not drawn)
T/C (dose: 6.25 mg/kg/injection, schedule: Q01DX009 (ip), vehicle: Klucel (hydroxypropylcellulose) (HPC)): 105 % of control | T/C [10]: 95 % of control | T/C [11]: 106 % of control | T/C [12]: 110 % of control

CC(=O)C1=CN(Cc2ccccc2)C=C(C(C)C)C1
T/C (dose: 50.0 mg/kg/injection, schedule: Q04DX003 (ip), vehicle: saline): 98 % of control | T/C (dose: 50.0 mg/kg/injection, schedule: Q04DX003 (ip), vehicle: suspension in saline): 104 % of control | T/C (dose: 100.0 mg/kg/injection, schedule: Q04DX003 (ip), vehicle: saline): 101 % of control | T/C (dose: 100.0 mg/kg/injection, schedule: Q04DX003 (ip), vehicle: suspension in saline): 103 % of control | T/C (dose: 200.0 mg/kg/injection, schedule: Q04DX003 (ip), vehicle: saline): 104 % of control | T/C (dose: 200.0 mg/kg/injection, schedule: Q04DX003 (ip), vehicle: suspension in saline): 105 % of control

Cc1nc(Nc2c(C)cccc2C)c2c(-c3ccccc3)c[nH]c2n1
T/C [1]: 99 % of control | T/C [2]: 94 % of control | T/C [3]: 92 % of control

O=P1(NC23CC4CC(CC(C4)C2)C3)OC(CCl)=NC1c1ccc(C2N=C(CCl)OP2(=O)NC23CC4CC(CC(C4)C2)C3)cc1 (stereo not drawn)
T/C [13]: 98 % of control | T/C [14]: 98 % of control | T/C [15]: 98 % of control

CCCOC(=O)c1ccccc1OP(=O)(N(C)C)N(C)C
T/C (dose: 50.0 mg/kg/injection, schedule: Q01DX005 (ip), vehicle: saline): 93 % of control | T/C (dose: 100.0 mg/kg/injection, schedule: Q01DX005 (ip), vehicle: saline): 98 % of control | T/C (dose: 200.0 mg/kg/injection, schedule: Q01DX005 (ip), vehicle: saline): 108 % of control

O=C1c2ccccc2C(=O)C1(Br)C(Br)c1ccccc1 (stereo not drawn)
T/C (dose: 100.0 mg/kg/injection, schedule: Q01DX009 (ip), vehicle: Klucel (hydroxypropylcellulose) (HPC)): 104 % of control | T/C (dose: 100.0 mg/kg/injection, schedule: Q04DX003 (ip), vehicle: Klucel (hydroxypropylcellulose) (HPC)): 104 % of control | T/C (dose: 200.0 mg/kg/injection, schedule: Q04DX003 (ip), vehicle: Klucel (hydroxypropylcellulose) (HPC)): 95 % of control | T/C (dose: 400.0 mg/kg/injection, schedule: Q04DX003 (ip), vehicle: Klucel (hydroxypropylcellulose) (HPC)): 90 % of control

[C-]#[N+]N=P(c1ccccc1)(c1ccccc1)c1ccccc1
T/C (dose: 60.0 mg/kg/injection, schedule: Q01DX005 (ip), vehicle: Klucel (hydroxypropylcellulose) (HPC)): 107 % of control | T/C (dose: 120.0 mg/kg/injection, schedule: Q01DX005 (ip), vehicle: Klucel (hydroxypropylcellulose) (HPC)): 114 % of control | T/C (dose: 240.0 mg/kg/injection, schedule: Q01DX005 (ip), vehicle: Klucel (hydroxypropylcellulose) (HPC)): 122 % of control

N#C/C(=N\NC(=O)c1ccccc1Cl)c1ccccc1Cl
T/C [7]: 97 % of control | T/C [8]: 106 % of control

ClCc1ccccc1CCl
T/C (dose: 5.0 mg/kg/injection, schedule: Q04DX003 (ip), vehicle: saline with Tween-80): 106 % of control | T/C (dose: 10.0 mg/kg/injection, schedule: Q04DX003 (ip), vehicle: saline with Tween-80): 94 % of control | T/C (dose: 20.0 mg/kg/injection, schedule: Q04DX003 (ip), vehicle: saline with Tween-80): 100 % of control | T/C (dose: 40.0 mg/kg/injection, schedule: Q04DX003 (ip), vehicle: saline with Tween-80): 117 % of control

CC(=O)Nc1ccc(S(=O)(=O)Nc2c(N)[nH]c(=S)[nH]c2=O)cc1
T/C [13]: 97 % of control | T/C [14]: 98 % of control | T/C [15]: 97 % of control

CC(=O)N(C)OS(=O)(=O)c1ccc(C)cc1
T/C (dose: 50.0 mg/kg/injection, schedule: Q01DX001 (ip), vehicle: saline with Tween-80): 102 % of control | T/C (dose: 100.0 mg/kg/injection, schedule: Q01DX001 (ip), vehicle: saline with Tween-80): 105 % of control | T/C (dose: 200.0 mg/kg/injection, schedule: Q01DX001 (ip), vehicle: saline with Tween-80): 105 % of control | T/C (dose: 400.0 mg/kg/injection, schedule: Q01DX001 (ip), vehicle: saline with Tween-80): 95 % of control
